Measurements as given in ChEMBL document CHEMBL4507268 (2021).

Tests used:
[1] = target: Dual specificity protein kinase CLK4 (Homo sapiens) (UniProt Q9HAZ1); conditions: Compound concentration 1000.0 nM
[2] = target: Homeodomain-interacting protein kinase 1 (Homo sapiens) (UniProt Q86Z02); conditions: Compound concentration 1000.0 nM
[3] = target: Dual specificity mitogen-activated protein kinase kinase 1 (Homo sapiens) (UniProt Q02750); conditions: Compound concentration 1000.0 nM
[4] = target: T1, Muscle, skeletal receptor tyrosine-protein kinase (Homo sapiens) (UniProt O15146); conditions: Compound concentration 1000.0 nM
T1 sequence (whole entry): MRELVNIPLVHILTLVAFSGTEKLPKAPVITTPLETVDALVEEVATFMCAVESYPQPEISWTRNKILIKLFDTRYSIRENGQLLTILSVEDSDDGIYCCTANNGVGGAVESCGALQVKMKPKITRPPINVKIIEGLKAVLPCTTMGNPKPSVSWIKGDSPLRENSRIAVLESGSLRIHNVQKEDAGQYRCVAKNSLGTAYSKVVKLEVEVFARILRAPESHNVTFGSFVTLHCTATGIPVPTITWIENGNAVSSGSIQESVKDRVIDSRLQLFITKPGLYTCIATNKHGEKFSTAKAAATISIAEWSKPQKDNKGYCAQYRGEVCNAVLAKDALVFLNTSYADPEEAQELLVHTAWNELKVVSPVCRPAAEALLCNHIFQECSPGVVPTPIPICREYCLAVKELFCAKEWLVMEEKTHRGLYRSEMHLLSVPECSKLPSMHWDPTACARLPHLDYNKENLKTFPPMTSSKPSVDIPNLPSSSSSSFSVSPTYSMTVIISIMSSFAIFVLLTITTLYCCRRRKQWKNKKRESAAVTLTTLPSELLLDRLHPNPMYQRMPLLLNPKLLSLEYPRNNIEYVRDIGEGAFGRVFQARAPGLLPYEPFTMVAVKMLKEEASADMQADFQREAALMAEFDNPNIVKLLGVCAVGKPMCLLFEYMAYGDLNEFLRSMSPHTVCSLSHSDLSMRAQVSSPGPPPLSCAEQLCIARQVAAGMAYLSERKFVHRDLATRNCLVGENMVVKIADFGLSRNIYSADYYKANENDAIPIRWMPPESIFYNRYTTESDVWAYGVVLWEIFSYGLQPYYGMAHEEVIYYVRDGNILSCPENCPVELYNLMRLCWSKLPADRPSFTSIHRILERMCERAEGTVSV

[5] = target: Serine/threonine-protein kinase PAK 3 (Homo sapiens) (UniProt O75914); conditions: Compound concentration 1000.0 nM
[6] = target: T2, Phosphorylase b kinase regulatory subunit alpha, liver isoform (Homo sapiens) (UniProt P46019); conditions: Compound concentration 1000.0 nM
T2 sequence (whole entry): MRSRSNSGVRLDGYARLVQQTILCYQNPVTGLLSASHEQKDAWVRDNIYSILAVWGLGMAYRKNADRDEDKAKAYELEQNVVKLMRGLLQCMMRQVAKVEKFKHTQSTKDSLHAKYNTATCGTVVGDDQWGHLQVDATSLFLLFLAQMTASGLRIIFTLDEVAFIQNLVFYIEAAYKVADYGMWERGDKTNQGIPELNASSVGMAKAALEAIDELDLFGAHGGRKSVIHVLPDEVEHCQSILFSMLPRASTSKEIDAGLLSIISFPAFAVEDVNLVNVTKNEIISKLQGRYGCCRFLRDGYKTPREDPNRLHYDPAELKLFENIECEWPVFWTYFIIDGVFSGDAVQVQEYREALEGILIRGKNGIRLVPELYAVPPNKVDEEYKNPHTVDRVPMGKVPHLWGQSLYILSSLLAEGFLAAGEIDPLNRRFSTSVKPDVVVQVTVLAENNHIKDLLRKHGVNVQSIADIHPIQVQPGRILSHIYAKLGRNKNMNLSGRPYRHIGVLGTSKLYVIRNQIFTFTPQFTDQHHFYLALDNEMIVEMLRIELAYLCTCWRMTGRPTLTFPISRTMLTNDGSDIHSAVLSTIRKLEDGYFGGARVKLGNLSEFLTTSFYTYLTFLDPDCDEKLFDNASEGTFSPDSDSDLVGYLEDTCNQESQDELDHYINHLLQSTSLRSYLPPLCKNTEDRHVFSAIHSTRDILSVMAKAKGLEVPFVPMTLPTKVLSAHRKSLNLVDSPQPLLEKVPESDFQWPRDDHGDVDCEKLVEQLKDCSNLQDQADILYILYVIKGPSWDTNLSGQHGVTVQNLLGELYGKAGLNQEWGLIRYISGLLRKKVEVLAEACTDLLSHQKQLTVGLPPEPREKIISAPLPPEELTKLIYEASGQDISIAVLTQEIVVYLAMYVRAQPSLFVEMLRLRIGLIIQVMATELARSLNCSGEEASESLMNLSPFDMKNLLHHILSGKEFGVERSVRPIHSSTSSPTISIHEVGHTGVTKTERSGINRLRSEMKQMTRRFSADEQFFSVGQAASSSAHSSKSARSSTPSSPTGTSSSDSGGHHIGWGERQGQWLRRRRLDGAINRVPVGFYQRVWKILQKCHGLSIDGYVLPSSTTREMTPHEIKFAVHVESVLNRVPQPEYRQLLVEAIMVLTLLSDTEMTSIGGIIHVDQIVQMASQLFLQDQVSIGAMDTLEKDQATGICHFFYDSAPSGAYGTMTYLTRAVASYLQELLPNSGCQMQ

[7] = target: Receptor-interacting serine/threonine-protein kinase 4 (Homo sapiens) (UniProt P57078); conditions: Compound concentration 1000.0 nM
[8] = target: Non-receptor tyrosine-protein kinase TNK1 (Homo sapiens) (UniProt Q13470); conditions: Compound concentration 1000.0 nM
[9] = target: Wee1-like protein kinase 2 (Homo sapiens) (UniProt P0C1S8); conditions: Compound concentration 1000.0 nM
[10] = target: Histamine H2 receptor (Homo sapiens) (UniProt P25021); conditions: Compound concentration 10.0 uM
[11] = target: Beta-1 adrenergic receptor (Homo sapiens) (UniProt P08588); conditions: Compound concentration 10.0 uM
Beta-1 adrenergic receptor (Homo sapiens), sequence (P08588 whole entry, looked up): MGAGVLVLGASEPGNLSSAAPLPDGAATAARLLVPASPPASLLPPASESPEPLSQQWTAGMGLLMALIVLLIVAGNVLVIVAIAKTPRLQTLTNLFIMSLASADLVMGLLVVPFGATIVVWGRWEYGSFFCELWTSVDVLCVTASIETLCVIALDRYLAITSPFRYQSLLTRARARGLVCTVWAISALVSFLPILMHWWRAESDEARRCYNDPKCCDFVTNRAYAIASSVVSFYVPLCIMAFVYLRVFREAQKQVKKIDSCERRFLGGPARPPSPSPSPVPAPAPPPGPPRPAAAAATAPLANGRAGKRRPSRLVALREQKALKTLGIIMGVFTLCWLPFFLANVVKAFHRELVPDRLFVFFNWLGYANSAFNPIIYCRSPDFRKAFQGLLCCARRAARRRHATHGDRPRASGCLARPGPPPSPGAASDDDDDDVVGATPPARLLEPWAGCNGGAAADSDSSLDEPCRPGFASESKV

Wee1-like protein kinase 2 (Homo sapiens), sequence (P0C1S8 whole entry, looked up): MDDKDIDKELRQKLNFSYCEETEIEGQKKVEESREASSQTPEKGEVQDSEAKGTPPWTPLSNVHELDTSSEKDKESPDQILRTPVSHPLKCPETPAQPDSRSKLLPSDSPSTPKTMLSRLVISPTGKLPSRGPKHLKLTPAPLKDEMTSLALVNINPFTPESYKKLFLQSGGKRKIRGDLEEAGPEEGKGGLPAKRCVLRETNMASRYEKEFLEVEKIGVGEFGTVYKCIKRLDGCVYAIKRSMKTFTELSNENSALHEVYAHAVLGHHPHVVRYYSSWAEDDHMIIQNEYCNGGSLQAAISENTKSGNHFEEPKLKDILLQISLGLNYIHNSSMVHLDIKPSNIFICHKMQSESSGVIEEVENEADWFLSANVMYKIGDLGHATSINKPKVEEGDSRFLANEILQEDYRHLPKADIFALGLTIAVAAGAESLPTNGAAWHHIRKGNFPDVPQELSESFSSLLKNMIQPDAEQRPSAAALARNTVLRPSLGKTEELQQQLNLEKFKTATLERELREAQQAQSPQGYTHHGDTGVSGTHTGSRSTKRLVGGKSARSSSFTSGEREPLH
Serine/threonine-protein kinase PAK 3 (Homo sapiens), sequence (O75914 whole entry, looked up, canonical isoform): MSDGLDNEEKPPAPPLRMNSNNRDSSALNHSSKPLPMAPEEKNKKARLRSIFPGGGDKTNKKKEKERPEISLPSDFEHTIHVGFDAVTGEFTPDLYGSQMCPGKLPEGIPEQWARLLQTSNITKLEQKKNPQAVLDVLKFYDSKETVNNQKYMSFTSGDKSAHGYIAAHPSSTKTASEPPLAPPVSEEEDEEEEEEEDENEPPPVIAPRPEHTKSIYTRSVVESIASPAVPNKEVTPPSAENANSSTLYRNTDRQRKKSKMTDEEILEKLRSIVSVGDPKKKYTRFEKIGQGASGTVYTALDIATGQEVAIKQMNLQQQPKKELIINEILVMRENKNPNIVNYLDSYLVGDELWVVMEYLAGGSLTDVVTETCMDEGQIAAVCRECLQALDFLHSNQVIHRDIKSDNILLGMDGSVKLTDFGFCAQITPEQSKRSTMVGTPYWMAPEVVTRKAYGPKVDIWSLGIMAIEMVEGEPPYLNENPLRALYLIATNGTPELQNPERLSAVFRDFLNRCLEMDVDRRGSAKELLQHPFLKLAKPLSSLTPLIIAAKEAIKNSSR
Histamine H2 receptor (Homo sapiens), sequence (P25021 whole entry): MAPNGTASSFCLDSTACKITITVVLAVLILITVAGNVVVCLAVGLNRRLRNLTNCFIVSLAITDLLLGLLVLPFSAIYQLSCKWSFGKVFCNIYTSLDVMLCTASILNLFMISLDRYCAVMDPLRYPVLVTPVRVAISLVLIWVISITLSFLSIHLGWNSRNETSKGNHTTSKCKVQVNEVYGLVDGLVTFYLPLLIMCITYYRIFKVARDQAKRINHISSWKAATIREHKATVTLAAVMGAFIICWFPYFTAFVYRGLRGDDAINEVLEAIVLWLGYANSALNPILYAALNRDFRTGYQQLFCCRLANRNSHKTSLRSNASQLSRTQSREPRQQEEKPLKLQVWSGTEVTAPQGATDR
Homeodomain-interacting protein kinase 1 (Homo sapiens), sequence (Q86Z02 whole entry, looked up): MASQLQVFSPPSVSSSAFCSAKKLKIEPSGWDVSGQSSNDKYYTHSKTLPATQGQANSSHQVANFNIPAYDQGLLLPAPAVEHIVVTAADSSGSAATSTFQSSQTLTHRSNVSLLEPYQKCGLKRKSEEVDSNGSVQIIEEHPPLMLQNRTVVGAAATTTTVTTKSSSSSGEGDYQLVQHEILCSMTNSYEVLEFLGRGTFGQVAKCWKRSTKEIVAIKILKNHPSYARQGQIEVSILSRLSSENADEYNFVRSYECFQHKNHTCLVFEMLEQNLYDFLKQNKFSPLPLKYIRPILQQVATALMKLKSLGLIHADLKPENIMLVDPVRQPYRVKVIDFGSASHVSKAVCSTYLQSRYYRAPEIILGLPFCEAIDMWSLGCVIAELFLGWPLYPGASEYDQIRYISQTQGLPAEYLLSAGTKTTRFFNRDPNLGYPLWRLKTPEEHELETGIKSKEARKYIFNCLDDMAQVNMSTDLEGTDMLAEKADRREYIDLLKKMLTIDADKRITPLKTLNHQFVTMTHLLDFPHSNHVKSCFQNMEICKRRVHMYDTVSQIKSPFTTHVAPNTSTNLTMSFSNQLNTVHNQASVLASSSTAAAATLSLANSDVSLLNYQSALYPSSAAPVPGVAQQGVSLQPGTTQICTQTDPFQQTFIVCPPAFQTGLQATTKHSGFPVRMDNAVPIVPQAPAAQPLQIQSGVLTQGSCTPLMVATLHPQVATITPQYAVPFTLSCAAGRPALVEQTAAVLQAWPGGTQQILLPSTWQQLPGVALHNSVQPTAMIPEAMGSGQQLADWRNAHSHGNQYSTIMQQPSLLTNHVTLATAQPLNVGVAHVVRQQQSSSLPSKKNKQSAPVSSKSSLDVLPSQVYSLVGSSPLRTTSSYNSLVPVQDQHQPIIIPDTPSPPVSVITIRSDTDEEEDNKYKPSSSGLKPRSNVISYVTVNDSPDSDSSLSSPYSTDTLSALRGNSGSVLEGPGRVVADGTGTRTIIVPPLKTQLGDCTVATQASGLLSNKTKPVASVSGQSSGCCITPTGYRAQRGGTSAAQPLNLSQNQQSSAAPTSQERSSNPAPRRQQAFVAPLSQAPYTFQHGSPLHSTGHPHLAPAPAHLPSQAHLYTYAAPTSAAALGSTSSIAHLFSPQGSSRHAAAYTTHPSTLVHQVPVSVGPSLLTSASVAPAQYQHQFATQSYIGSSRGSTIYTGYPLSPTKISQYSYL
Non-receptor tyrosine-protein kinase TNK1 (Homo sapiens), sequence (Q13470 whole entry): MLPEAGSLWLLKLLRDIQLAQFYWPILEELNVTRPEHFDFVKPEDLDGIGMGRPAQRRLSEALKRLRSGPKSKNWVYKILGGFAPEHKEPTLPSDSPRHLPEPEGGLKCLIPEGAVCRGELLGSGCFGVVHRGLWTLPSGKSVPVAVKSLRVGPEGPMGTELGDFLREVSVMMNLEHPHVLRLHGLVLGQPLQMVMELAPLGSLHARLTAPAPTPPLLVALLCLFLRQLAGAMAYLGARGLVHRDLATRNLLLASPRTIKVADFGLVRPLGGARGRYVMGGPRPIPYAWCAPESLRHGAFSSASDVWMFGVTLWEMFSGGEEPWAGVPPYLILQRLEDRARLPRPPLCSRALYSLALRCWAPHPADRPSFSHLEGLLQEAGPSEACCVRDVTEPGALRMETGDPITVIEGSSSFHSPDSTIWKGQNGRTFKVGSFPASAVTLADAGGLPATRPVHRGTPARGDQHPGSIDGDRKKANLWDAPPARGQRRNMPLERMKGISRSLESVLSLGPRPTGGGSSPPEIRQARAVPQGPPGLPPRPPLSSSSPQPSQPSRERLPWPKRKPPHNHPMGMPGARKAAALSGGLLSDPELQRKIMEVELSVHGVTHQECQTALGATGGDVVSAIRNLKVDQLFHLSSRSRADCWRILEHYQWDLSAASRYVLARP
Receptor-interacting serine/threonine-protein kinase 4 (Homo sapiens), sequence (P57078 whole entry): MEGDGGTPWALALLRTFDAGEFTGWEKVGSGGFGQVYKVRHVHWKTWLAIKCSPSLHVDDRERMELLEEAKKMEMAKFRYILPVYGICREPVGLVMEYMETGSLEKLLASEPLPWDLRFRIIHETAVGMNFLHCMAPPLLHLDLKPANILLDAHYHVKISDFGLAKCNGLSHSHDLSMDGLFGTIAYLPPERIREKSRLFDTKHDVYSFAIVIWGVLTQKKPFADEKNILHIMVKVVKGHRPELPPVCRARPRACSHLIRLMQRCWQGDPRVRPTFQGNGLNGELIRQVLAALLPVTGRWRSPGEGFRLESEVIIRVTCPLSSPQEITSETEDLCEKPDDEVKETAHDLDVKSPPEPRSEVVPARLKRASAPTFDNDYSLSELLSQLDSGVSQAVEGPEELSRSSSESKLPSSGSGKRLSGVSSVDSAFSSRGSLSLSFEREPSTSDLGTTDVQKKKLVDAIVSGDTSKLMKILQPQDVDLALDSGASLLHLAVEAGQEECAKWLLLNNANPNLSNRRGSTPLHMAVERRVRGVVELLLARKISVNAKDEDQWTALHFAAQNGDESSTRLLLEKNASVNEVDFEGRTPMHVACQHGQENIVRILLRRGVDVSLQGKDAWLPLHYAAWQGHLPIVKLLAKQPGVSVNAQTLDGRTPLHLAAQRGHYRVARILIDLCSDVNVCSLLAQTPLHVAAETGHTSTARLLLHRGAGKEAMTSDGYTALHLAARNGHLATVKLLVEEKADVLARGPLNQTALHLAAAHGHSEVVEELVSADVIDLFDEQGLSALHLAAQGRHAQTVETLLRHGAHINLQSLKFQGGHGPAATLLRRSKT

Cc1nc(C2CCN(C(=O)c3ccc(OC(F)(F)F)cc3N)CC2)c2ncc(N3CCN(C)CC3)cc2n1 [BAY-693]
inactive: residual activity [1] 97% | residual activity [2] 100% | residual activity [3] 85% | residual activity [4] 100% | residual activity [5] 100% | residual activity [6] 100% | residual activity [7] 84% | residual activity [8] 100% | residual activity [9] 100% | inhibition [10] 23.6% | inhibition [11] 17.9%

CN1CCN(c2cnc3c(C4CCN(C(=O)c5ccc(OC(F)(F)F)cc5N)CC4)ncnc3c2)CC1 [BAY-885]
inactive: residual activity [1] 98% | residual activity [2] 99% | residual activity [3] 95% | residual activity [4] 100% | residual activity [5] 88% | residual activity [6] 100% | residual activity [7] 100% | residual activity [8] 100% | residual activity [9] 100% | inhibition [10] 31.2% | inhibition [11] 12.6%
